Laboratory results from paper PMC7662321, “Andrographolide and Its 14-Aryloxy Analogues Inhibit Zika and Dengue Virus Infection” (Molecules, 2020).

Experiments:
[1] = MTT cytotoxicity assay in BHK-21 cells; type: cell-based; details: hamster, BHK-21 cells (baby hamster kidney), 24 h post-treatment
Procedure: Cytotoxicity of each compound towards cells for four selected cell lines in the range of 1 to 500 µM was evaluated using the MTT (3-(4,5-dimethylthiazol-2-yl)-2,5-diphenyltetrazolium bromide) assay at 24 h post-treatment, in parallel with control and vehicle-treated cells (0.1% dimethyl sulfoxide (DMSO)). The 50% cytotoxic concentration (CC50) values calculated from the dose-response curve (Supplementary Figures S2–S5) are shown in Table 1. Overall, a range of cytotoxicities were seen from the four compounds across the […]. The most cytotoxic combination was ZAD-1 and BHK-21 cells, while the least cytotoxic combination was andrographolide and BHK-21 cells (Table 1).
A549 cells were cultured in ninety-six-well tissue culture plates under standard conditions until the cells reached 90% confluence. The cell culture medium was removed and then cells were incubated with various concentrations of andrographolide (1–100 μM) diluted in complete medium with FBS prior to being cultured for 24 h under standard conditions before analysis using either the Vybrant MTT Cell proliferation assay kit (V13154, Invitrogen) or the alamarBlue (Thermo Fischer Scientific, Waltham, MA, USA) assay kit according to the manufacturers recommendations. Values were determined from 8 (MTT assay) or 3 (alamarBlue) independent replicates. Negative controls (only media and media with 0.1% DMSO) and positive controls (5% DMSO) were included. To determine cell number, cell cultures were trypsinized by the addition of 0.25% Trypsin/0.1% ethylelediaminetetraacetic acid (EDTA) for 3 min and then cell suspensions were diluted with 0.4% trypan blue solution. Cells were counted using a hemocytometer. Cell morphology was additionally observed under an inverted microscope after 24 h treatment with various concentrations of each compound.
Figu re S2. Cytotoxicity of ZAD -1 (A), ZA D-2 (B), ZA D-3 (C), and andro grapholide (D) to BHK- 21 (baby hamster kidney) cells. BHK- 21 cells were incubated with various concentrations of each compound for 24 hrs followed by MTT cell viability assay. The experiment was undertaken independently in 4 replicates.
DMSO at the same concentrations was used as a control. 10% ethanol, PBS, and milli- Q water were used as a positive control of cell death. The bars show mean ± SD. […]

HSPA1A [2] = assay: 2D-PAGE proteomic analysis of treated A549 cells, HSPA1A spot; type: cell-based, human; details: A549, 25 µM, 24 h
Procedure: (§1) A549 cells were therefore treated with either vehicle (0.025% DMSO), or with 25 μM of andrographolide or ZAD-1, and at 24 h post-treatment, proteins were prepared and subjected to two-dimension polyacrylamide gel electrophoresis (2D-PAGE). The experiment was undertaken independently in triplicate and representative gels are shown Figure 5, with all replicates being shown in Supplementary Figure S12. […] All of these protein spots were cut from the gels and then subjected to in-gel tryptic digestion followed by mass spectrometry. MASCOT (Matrix Science Inc., Boston, MA, USA) search of the resultant masses identified 4 proteins (Table 3), namely heat shock protein 70 kDa 1A (HSPA1A), phosphoglycerate kinase 1 (PGK1), transketolase (TKT) and nuclear transport protein of GTP-binding nuclear protein Ran (Ran).
(§2) 2D-PAGE and mass spectroscopic identification of differentially expressed spots was undertaken essentially as previously described. […] Image data were analyzed using Image Master™ 2D Platinum software version 7.0 (GenBio, Geneva, Switzerland). Each spot was evaluated on intensity, volume and area. […] After tryptic in-gel digestion, peptide masses were determined by LC-MS/MS using SYNAPT high definition MS (HDMS) (Waters Corp., Milford, MA, USA).

PGK1 [3] = assay: 2D-PAGE proteomic analysis of treated A549 cells, PGK1 spot; type: cell-based, human; details: A549, 25 µM, 24 h
Procedure: as §1, §2

HSPA1A [4] = assay: Western blot of HSPA1A expression in treated A549 cells; type: cell-based, human; details: A549, 25 µM, 24 h, normalized to GAPDH
Procedure: (§3) To confirm the 2D-gel analysis results, HSPA1A and PGK1 were selected for the validation by Western blot. The same three experimental conditions were established, namely A549 cells treated with vehicle (0.025% DMSO), 25 μM andrographolide or 25 μM ZAD-1. Glyceraldehyde-3-phosphate dehydrogenase (GAPDH) was used as a loading control and the proteins were normalized to this protein. […] While the difference in HSPA1A expression between andrographolide treatment and ZAD-1 treatment is consistent with the spot intensity data (Table 3), the spot density for the control DMSO treatment is not consistent with the western blot result.
(§4) A total of 40 µg of proteins were separated by electrophoresis through a 12% sodium dodecyl sulfate (SDS) polyacrylamide gel and transferred to a nitrocellulose membrane by electroblotting. The membranes were blocked with 5% skim milk in TBS-T (20 mM Tris, 140 mM NaCl and 0.1% Tween-20) at room temperature for 1 h with shaking. […] The signal of specific protein bands was detected using the Luminata Forte Western HRP Substrate (Millipore Corp., Burlington, MA, USA) and recorded by film autoradiography. […]

PGK1 [5] = assay: Western blot of PGK1 expression in treated A549 cells; type: cell-based, human; details: A549, 25 µM, 24 h, normalized to GAPDH
Procedure: as §3, §4

| SMILES | CC50 at 24 h [1] [µM] | Intensity Level, spot 1 HSPA1A (HSPA1A [2]) | Intensity Level, spot 3 PGK1 (PGK1 [3]) | HSPA1A expression compared with the vehicle control (HSPA1A [4]) | PGK1 expression relative to the vehicle (PGK1 [5]) | PGK1 expression as compared to andrographolide treatment (PGK1 [5]) |
| --- | --- | --- | --- | --- | --- | --- |
| C=C1CC[C@@H]2[C@](C)(CO)[C@H](O)CC[C@@]2(C)[C@@H]1C/C=C1/C(=O)OC[C@H]1O [Andrographolide] | 600 ± 75 | 2410.2 | 1053.31 | significantly increased | significantly upregulated | – |
| C=C1CC[C@@H]2[C@]3(C)COC(C)(C)O[C@@H]3CC[C@@]2(C)[C@@H]1C/C=C1/C(=O)OC[C@@H]1Oc1c(Cl)cc(Cl)c2ccc(C)nc12 [ZAD-1] | 136 ± 6 | 1279.25 | 2509.31 | no significant difference from control | – | significantly increased expression |
